Assay results as given in US20160095897A1 (priority 2013, published 2016).
Read-outs that look alike come from different tables or passages of the source.

How the values were obtained:
IAV A/PR/8/34 = format: in vivo, mice; settings: lethal dose
IAV A/PR/8/34 (H1N1) = format: in vivo; settings: mice, IAV A/PR/8/34 (H1N1) 40 or 60% lethal doses, pepducin p4pal-10 10 μg

N-palmitoyl-SGRRYGHALR-NH2 (HELM PEPTIDE1{[CCCCCCCCCCCCCCCC(=O)[*:2]].S.G.R.R.Y.G.H.A.L.R.[am]}$$$$V2.0; SMILES CCCCCCCCCCCCCCCC(=O)N[C@@H](CO)C(=O)NCC(=O)N[C@@H](CCCNC(=N)N)C(=O)N[C@@H](CCCNC(=N)N)C(=O)N[C@@H](Cc1ccc(O)cc1)C(=O)NCC(=O)N[C@@H](Cc1c[nH]cn1)C(=O)N[C@@H](C)C(=O)N[C@@H](CC(C)C)C(=O)N[C@@H](CCCNC(=N)N)C(N)=O) [pepducin p4pal-10]
IL1-β level in BAL (IAV A/PR/8/34; day 3 post-inoculation, ELISA): not at day 3 | IL-6 level in BAL (IAV A/PR/8/34; day 3 post-inoculation, ELISA): not at day 3 | MIP-2 level in BAL (IAV A/PR/8/34; day 3 post-inoculation, ELISA): not at day 3 | level of total proteins in BAL (IAV A/PR/8/34; day 6 post-inoculation): significantly reduced | IFN-γ level in BAL (IAV A/PR/8/34; day 6 post-inoculation, ELISA): significantly reduced | IL1-β level in BAL (IAV A/PR/8/34; day 6 post-inoculation, ELISA): significantly reduced | IL-6 level in BAL (IAV A/PR/8/34; day 6 post-inoculation, ELISA): significantly reduced | MIP-2 level in BAL (IAV A/PR/8/34; day 6 post-inoculation, ELISA): significantly reduced | KC level in BAL (IAV A/PR/8/34; treated vs not treated): similar | RANTES level in BAL (IAV A/PR/8/34; treated vs not treated): similar | death (IAV A/PR/8/34 (H1N1)): protected mice from weight loss and death | weight loss (IAV A/PR/8/34 (H1N1)): protected mice from weight loss
